Measurements published in patent publication US8785655B2, “Ionic liquid solvents” (Dublin City University, priority 2009, dated 2014).

Columns and labels:
[1] = tested on: Staphylococcus epidermidis H 6966/08; assay: Screen against bacteria, MIC/IC80; type: cell-based; conditions: SE
Candida krusei ATCC 6258 = assay: In vitro antifungal activity, MIC by microdilution (NCCLS M27-A)
Escherichia coli CCM4517 = assay: Screen against bacteria, MIC/IC80; type: cell-based; conditions: EC
[2] = tested on: Enterococcus sp. J 14365/08; assay: Screen against bacteria, MIC/IC80; type: cell-based; conditions: EF
Candida glabrata 20/l = assay: In vitro antifungal activity, MIC by microdilution (NCCLS M27-A); conditions: CG
Experimental: (§1) In vitro antifungal activities of the compounds were evaluated on the collection of fungal strains deposited at the Department of Biological and Medical Sciences, Faculty of Pharmacy, Charles University, Czech Republic. All the isolates were maintained on Sabouraud dextrose agar prior to being tested.
(§2) Minimum inhibitory concentrations (MICs) were determined by the microdilution format of the NCCLS M27-A guidelines. […] RPMI 1640 (Sevapharma, Prague) medium supplemented with L-glutamine and buffered with 0.165 M morpholinepropanesulfonic acid to pH 7.0 was used as the test medium. The wells of the microdilution tray contained 100 μl of the RPMI 1640 medium with 2-fold serial dilutions of the compounds (1000 to 0.24 μmol/l for the new compounds) and 100 μl of inoculum suspension. Fungal inoculum in RPMI 1640 was prepared to give a final concentration of 5×103±0.2 cfu·ml-1. The trays were incubated at 35° C. and MICs were read visually for filamentous fungi and photometrically for yeasts as an optical density (OD) at 540 nm after 24 h and 48 h. The MICs were defined as 80% inhibition of the growth of control. MICs were determined twice and in duplicate. The deviations from the usually obtained were no higher than the nearest concentration value up and down the dilution scale.

[3] = tested on: Candida lusitaniae 2446/l; assay: as above; conditions: CL
[4] = tested on: Aspergillus fumigatus 231; assay: as above; conditions: AF
Candida tropicalis 156 = assay: as above; conditions: CT
[5] = tested on: Trichophyton mentagrophytes 445; assay: as above; conditions: TM
Absidia corymbifera 272 = assay: as above; conditions: AC
Experimental: as §1, §2

[6] = tested on: Pseudomonas aeruginosa CCM 1961; assay: Screen against bacteria, MIC/IC80; type: cell-based; conditions: PA
[7] = tested on: Staphylococcus aureus CCM 4516/08; assay: Screen against bacteria, MIC/IC80; type: cell-based; conditions: SA
[8] = tested on: Candida parapsilosis ATCC 22019; assay: In vitro antifungal activity, MIC by microdilution (NCCLS M27-A); conditions: CP
[9] = tested on: Candida albicans ATCC 44859; assay: as above
[10] = tested on: Klebsiella pneumoniae D 11750/08; assay: Screen against bacteria, MIC/IC80; type: cell-based; conditions: KP
[11] = tested on: Staphylococcus aureus H 5996/08 Methiciline-resistant; assay: Screen against bacteria, MIC/IC80; type: cell-based; conditions: MRSA
[12] = tested on: Klebsiella pneumoniae J 14368/08 ESBL-positive; assay: Screen against bacteria, MIC/IC80; type: cell-based; conditions: KP-E
[13] = tested on: Candida albicans ATCC 90028; assay: In vitro antifungal activity, MIC by microdilution (NCCLS M27-A)
Candida krusei E28 = assay: as above

Measured: MIC/IC80

COC(=O)C(OC(=O)C[n+]1ccn(C)c1)c1ccccc1 (stereo not drawn) [KG86, RS-3-methyl-1-[1-(methoxycarbonyl)-1-phenylmethoxycarbonylmethyl]imidazolium octyl sulphate]
>1000 µM: [1]; 24 h | Candida krusei ATCC 6258; CK1, 24 h | Escherichia coli CCM4517; 24 h | [2]; 24 h | Candida glabrata 20/l; 24 h | [3]; 24 h | [4]; 24 h | Candida tropicalis 156; 24 h | [5]; 72 h | Absidia corymbifera 272; 24 h | [6]; 24 h | [7]; 24 h | [8]; 24 h | [9]; CA1, 24 h | [10]; 24 h

CCCCCCCCOS(=O)(=O)[O-].COC(=O)[C@@H](OC(=O)Cn1cc[n+](C)c1)c1ccccc1 [KG88, S-3-methyl-1-[1-(methoxycarbonyl)-1-phenylmethoxycarbonylmethyl]imidazolium octyl sulphate]
>1000 µM: [11]; 24 h | [11]; 48 h | [1]; 24 h | [1]; 48 h | Candida krusei ATCC 6258; CK1, 24 h | Candida krusei ATCC 6258; CK1, 48 h | Escherichia coli CCM4517; 24 h | Escherichia coli CCM4517; 48 h | [2]; 24 h | [2]; 48 h | Candida glabrata 20/l; 24 h | Candida glabrata 20/l; 48 h | [12]; 24 h | [12]; 48 h | [3]; 24 h | [3]; 48 h | [4]; 24 h | [4]; 48 h | Candida tropicalis 156; 24 h | Candida tropicalis 156; 48 h | [5]; 72 h | [5]; 120 h | Absidia corymbifera 272; 24 h | Absidia corymbifera 272; 48 h | [6]; 24 h | [6]; 48 h | [7]; 24 h | [7]; 48 h | [8]; 24 h | [8]; 48 h | [9]; CA1, 24 h | [9]; CA1, 48 h | [13]; CA2, 24 h | [13]; CA2, 48 h | [10]; 24 h | [10]; 48 h | Candida krusei E28; CK2, 24 h | Candida krusei E28; CK2, 48 h

COC(=O)C(OC(=O)C[n+]1ccn(C)c1)c1ccccc1 (stereo not drawn) [KG89, RS-3-methyl-1-[1-(methoxycarbonyl)-1-phenylmethoxycarbonylmethyl]imidazolium bromide]
>1000 µM: [11]; 24 h | [11]; 48 h | [1]; 24 h | [1]; 48 h | Candida krusei ATCC 6258; CK1, 24 h | Candida krusei ATCC 6258; CK1, 48 h | Escherichia coli CCM4517; 24 h | Escherichia coli CCM4517; 48 h | [2]; 24 h | [2]; 48 h | Candida glabrata 20/l; 24 h | Candida glabrata 20/l; 48 h | [12]; 24 h | [12]; 48 h | [3]; 24 h | [3]; 48 h | [4]; 24 h | [4]; 48 h | Candida tropicalis 156; 24 h | Candida tropicalis 156; 48 h | [5]; 72 h | [5]; 120 h | Absidia corymbifera 272; 24 h | Absidia corymbifera 272; 48 h | [6]; 24 h | [6]; 48 h | [7]; 24 h | [7]; 48 h | [8]; 24 h | [8]; 48 h | [9]; CA1, 24 h | [9]; CA1, 48 h | [13]; CA2, 24 h | [13]; CA2, 48 h | [10]; 24 h | [10]; 48 h | Candida krusei E28; CK2, 24 h | Candida krusei E28; CK2, 48 h

COC(=O)[C@H](OC(=O)C[n+]1ccn(C)c1)c1ccccc1 [KG90, R-3-methyl-1-[1-(methoxycarbonyl)-1-phenylmethoxycarbonylmethyl]imidazolium bromide]
>1000 µM: [11]; 24 h | [11]; 48 h | [1]; 24 h | [1]; 48 h | Candida krusei ATCC 6258; CK1, 24 h | Candida krusei ATCC 6258; CK1, 48 h | Escherichia coli CCM4517; 24 h | Escherichia coli CCM4517; 48 h | [2]; 24 h | [2]; 48 h | Candida glabrata 20/l; 24 h | Candida glabrata 20/l; 48 h | [12]; 24 h | [12]; 48 h | [3]; 24 h | [3]; 48 h | [4]; 24 h | [4]; 48 h | Candida tropicalis 156; 24 h | Candida tropicalis 156; 48 h | [5]; 72 h | [5]; 120 h | Absidia corymbifera 272; 24 h | Absidia corymbifera 272; 48 h | [6]; 24 h | [6]; 48 h | [7]; 24 h | [7]; 48 h | [8]; 24 h | [8]; 48 h | [9]; CA1, 24 h | [9]; CA1, 48 h | [13]; CA2, 24 h | [13]; CA2, 48 h | [10]; 24 h | [10]; 48 h | Candida krusei E28; CK2, 24 h | Candida krusei E28; CK2, 48 h
